# Patent US20210040118A1, “IMMUNOMODULATORS, COMPOSITIONS AND METHODS THEREOF” (BETTA PHARMACEUTICALS CO., LTD, priority 2018, published 2021)
# Molecular target: T1, PD-1/PD-L1 (Homo sapiens, UniProt Q9NZQ7)
# T1 construct: Recombinant human PD-L1 protein (19-238) with a His-tag at the C-terminus; purchased AcroBiosystems PD1-H5229 (PD-L1); PD1-H5257 (PD-1)
# Assay: PD-1/PD-L1 homogenous time-resolved fluorescence (HTRF) binding assay
# Settings: recombinant human PD-L1 (19-238) His-tag / human PD-1 (25-167) Fc tag, class symbols
# Description: Resolved Fluorescence (HTRF) Binding Assay
# The assays were conducted in a standard black 384-well polystyrene plate with a final volume of 20 μL. Inhibitors were first serially diluted in DMSO and then added to the plate wells before the addition of other reaction components. The final concentration of DMSO in the assay was 1%. The assays were carried out at 25° C. in the PBS buffer (pH 7.4) with 0.05% Tween-20 and 0.1% BSA. Recombinant human PD-L1 protein (19-238) with a His-tag at the C-terminus was purchased from AcroBiosy stems (PD1-H5229). Recombinant human PD-1 protein (25-167) with Fc tag at the C-terminus was also purchased from AcroBiosystems (PD1-H5257). PD-L1 and PD-1 proteins were diluted in the assay buffer and 10 μL was added to the plate well. Plates were centrifuged and proteins were preincubated with inhibitors for 40 min. The incubation was followed by the addition of […] of HTRF detection buffer supplemented with Europium cryptate-labeled anti-human IgG (PerkinElmer-AD0212) specific for Fc and anti-His antibody conjugated to SureLight®-Allophycocyanin (APC, PerkinElmer-AD0059H). After centrifugation, the plate was incubated at 25° C. for 60 min. Before reading on a PHERAstar FS plate reader (665 nm/620 nm ratio). Final concentrations in the assay were […] PD1, 10 nM PD-L1, 1 nM europium anti-human IgG and 20 nM anti-His-Allophycocyanin. IC50 determination was performed by fitting the curve of percent control activity versus the log of the inhibitor concentration using the GraphPad Prism 5.0 software.
# Data obtained for the Example compounds using the PD-1/PD-L1 homogenous time-resolved fluorescence (HTRF) binding assay described in Example A is provided in Table 4.
# T1 sequence (Q9NZQ7 19-238): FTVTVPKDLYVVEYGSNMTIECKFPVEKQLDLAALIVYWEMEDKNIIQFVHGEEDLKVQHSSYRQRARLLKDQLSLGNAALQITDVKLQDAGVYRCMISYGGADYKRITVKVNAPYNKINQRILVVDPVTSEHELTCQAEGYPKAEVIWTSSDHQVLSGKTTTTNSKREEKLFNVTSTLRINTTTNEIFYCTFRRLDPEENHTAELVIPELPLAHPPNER
row,IC50 [nM],SMILES
1,< 25,"Cc1nc(C(=O)Nc2cccc(-c3cccc(NC(=O)c4nc(C)c(CN[C@H](C(=O)O)C5CCOCC5)s4)c3C)c2C)sc1CN[C@H](C(=O)O)C1CCOCC1 [Example 53, (2S,2'S)-2,2′-(2,2′-(2,2′-dimethylbiphenyl-3,3′-diyl)bis(azanediyl)bis(oxomethylene)bis(4-methylthiazole-5,2-diyl))bis(methylene)bis(azanediyl)bis(2-(tetrahydro-2H-pyran-4-yl)acetic acid)]"
2,< 25,"Cc1nc(C(=O)Nc2cccc(-c3cccc(NC(=O)c4nc(C)c(CN5CCCC[C@H]5C(=O)O)s4)c3Cl)c2C)sc1CN1CCCC[C@H]1C(=O)O [Example 54, (2S,2'S)-1,1′-(2,2′-(2-chloro-2′-methylbiphenyl-3,3′-diyl)bis(azanediyl)bis(oxomethylene)bis(4-methylthiazole-5,2-diyl))bis(methylene)dipiperidine-2-carboxylic acid]"
3,< 25,"Cc1nc(C(=O)Nc2cccc(-c3cccc(NC(=O)c4nc(C)c(CN[C@H](C(=O)O)C5CCOCC5)s4)c3Cl)c2C)sc1CN[C@H](C(=O)O)C1CCOCC1 [Example 55, (2S,2'S)-2,2′-(2,2′-(2-chloro-2′-methylbiphenyl-3,3′-diyl)bis(azanediyl)bis(oxomethylene)bis(4-methylthiazole-5,2-diyl))bis(methylene)bis(azanediyl)bis(2-(tetrahydro-2H-pyran-4-yl)acetic acid)]"
4,< 25,"Cc1nc(C(=O)N2CCc3c(-c4cccc5c4CCN5C(=O)c4nc(C)c(CN5CCCC[C@H]5C(=O)O)s4)cccc32)sc1CN1CCCC[C@H]1C(=O)O [Example 56, (2S,2'S)-1,1′-(2,2′-(4,4′-biindoline-1,1′-diylbis(oxomethylene))bis(4-methylthiazole-5,2-diyl))bis(methylene)dipiperidine-2-carboxylic acid]"
5,< 25,"Cc1nc(C(=O)N2CCc3c(-c4cccc5c4CCN5C(=O)c4nc(C)c(CN[C@H](C(=O)O)C5CCOCC5)s4)cccc32)sc1CN[C@H](C(=O)O)C1CCOCC1 [Example 57, (2S,2'S)-2,2′-(2,2′-(4,4′-biindoline-1,1′-diylbis(oxomethylene))bis(4-methylthiazole-5,2-diyl))bis(methylene)bis(azanediyl)bis(2-(tetrahydro-2H-pyran-4-yl)acetic acid)]"
6,< 25,"Cc1nc(C(=O)Nc2cccc(-c3cccc4c3CCN4C(=O)c3nc(C)c(CN4CCCC[C@H]4C(=O)O)s3)c2C)sc1CN1CCCC[C@H]1C(=O)O [Example 58, (S)-1-((2-(3-(1-(5-(((S)-2-carboxypiperidin-1-yl)methyl)-4-methylthiazole-2-carbonyl)indolin-4-yl)-2-methylphenylcarbamoyl)-4-methylthiazol-5-yl)methyl)piperidine-2-carboxylic acid]"
7,< 25,"Cc1nc(C(=O)Nc2cccc(-c3cccc4c3CCN4C(=O)c3nc(C)c(CN[C@H](C(=O)O)C4CCOCC4)s3)c2C)sc1CN[C@H](C(=O)O)C1CCOCC1 [Example 59, (S)-2-((2-(3-(1-(5-(((S)-carboxy(tetrahydro-2H-pyran-4-yl)methylamino)methyl)-4-methylthiazole-2-carbonyl)indolin-4-yl)-2-methylphenylcarbamoyl)-4-methylthiazol-5-yl)methylamino)-2-(tetrahydro-2H-pyran-4-yl)acetic acid]"
8,< 25,"Cc1nc(C(=O)Nc2cccc(-c3cccc4c3CCN4C(=O)c3nc(C)c(CN4CCCC[C@H]4C(=O)O)s3)c2Cl)sc1CN1CCCC[C@H]1C(=O)O [Example 60, (S)-1-((2-(3-(1-(5-(((S)-2-carboxypiperidin-1-yl)methyl)-4-methylthiazole-2-carbonyl)indolin-4-yl)-2-chlorophenylcarbamoyl)-4-methylthiazol-5-yl)methyl)piperidine-2-carboxylic acid]"
